From ChEMBL document CHEMBL1949494, “SAR of α7 nicotinic receptor agonists derived from tilorone: exploration of a novel nicotinic pharmacophore” (Bioorg Med Chem Lett, 2012)

Assays:
[1] = molecular target: Neuronal acetylcholine receptor subunit alpha-7 (Rattus norvegicus, UniProt Q05941); assay: Displacement of [3H]methyllylcaconitine from alpha7 nAChR in rat brain; type: tissue-based
[2] = molecular target: T1, Neuronal acetylcholine receptor; alpha4/beta2 (Homo sapiens, UniProt P17787+P43681); assay: Agonist activity at alpha4beta2 nAChR receptor by FLIPR assay; type: functional
[3] = molecular target: T2, Neuronal acetylcholine receptor subunit alpha-7 (Homo sapiens, UniProt P36544); assay: Agonist activity at human recombinant alpha7 nAChR expressed in xenopus oocytes by patch clamp assay; type: functional, cell-based, Oocyte
[4] = molecular target: Neuronal acetylcholine receptor; alpha3/beta2 (Homo sapiens, UniProt P17787+P32297); assay: Agonist activity at alpha3beta2 nAChR receptor by FLIPR assay; type: functional
[5] = molecular target: T3, Neuronal acetylcholine receptor; alpha3/beta4 (Homo sapiens, UniProt P30926+P32297); assay: Agonist activity at alpha3beta4 nAChR receptor by FLIPR assay; type: functional
[6] = molecular target: Neuronal acetylcholine receptor; alpha4/beta4 (Homo sapiens, UniProt P30926+P43681); assay: Agonist activity at alpha4beta4 nAChR receptor by FLIPR assay; type: functional
[7] = molecular target: Muscarinic acetylcholine receptor; assay: Binding affinity to muscarinic receptor in rat brain; type: tissue-based
[8] = molecular target: T2, Neuronal acetylcholine receptor subunit alpha-7; assay: Agonist activity at human recombinant alpha7 nAChR expressed in xenopus oocytes by patch clamp assay relative to acetylcholine; type: functional, cell-based; conditions: Oocyte
[9] = Binding affinity to 5HT3
[10] = Plasma concentration in rat at 3 umol/kg, ip at 30 mins; type: ADME, organism-based
[11] = molecular target: T1, Neuronal acetylcholine receptor; alpha4/beta2; assay: Agonist activity at human recombinant alpha4beta2 nAChR in HEK293 cells by FLIPR assay; type: functional, cell-based
[12] = molecular target: T3, Neuronal acetylcholine receptor; alpha3/beta4; assay: Agonist activity at human recombinant alpha3beta4 nAChR in HEK293 cells by FLIPR assay; type: functional, cell-based
[13] = molecular target: Voltage-gated inwardly rectifying potassium channel KCNH2 (Homo sapiens, UniProt Q12809); assay: Displacement of [3H]dofetilide from human ERG expressed in HEK293 cells
[14] = Ratio of drug level in brain to plasma in rat at 3 umol/kg, ip at 30 mins; type: ADME, organism-based; conditions: read-out: BPR
[15] = molecular target: Neuronal acetylcholine receptor subunit alpha-7 (Rattus norvegicus) (UniProt Q05941); assay: Ratio of tilorone Ki to compound Ki for alpha7 nAChR in rat brain; type: tissue-based
Chain of Neuronal acetylcholine receptor subunit alpha-7 (Rattus norvegicus) (Q05941 whole entry): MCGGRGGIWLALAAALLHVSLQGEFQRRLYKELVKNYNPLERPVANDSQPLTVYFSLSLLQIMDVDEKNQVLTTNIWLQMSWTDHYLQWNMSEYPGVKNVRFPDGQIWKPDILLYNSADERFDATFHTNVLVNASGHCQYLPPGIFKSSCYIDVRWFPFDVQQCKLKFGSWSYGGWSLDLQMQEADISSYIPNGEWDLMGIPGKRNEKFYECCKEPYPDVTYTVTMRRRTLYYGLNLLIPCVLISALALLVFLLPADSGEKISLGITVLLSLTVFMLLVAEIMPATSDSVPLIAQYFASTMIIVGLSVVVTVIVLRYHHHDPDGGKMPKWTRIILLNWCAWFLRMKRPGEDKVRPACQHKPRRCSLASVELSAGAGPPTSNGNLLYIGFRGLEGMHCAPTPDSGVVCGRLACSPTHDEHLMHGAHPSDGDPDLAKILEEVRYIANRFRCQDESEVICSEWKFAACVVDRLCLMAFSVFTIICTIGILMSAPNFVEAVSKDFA

T3 sequence (P30926 whole entry): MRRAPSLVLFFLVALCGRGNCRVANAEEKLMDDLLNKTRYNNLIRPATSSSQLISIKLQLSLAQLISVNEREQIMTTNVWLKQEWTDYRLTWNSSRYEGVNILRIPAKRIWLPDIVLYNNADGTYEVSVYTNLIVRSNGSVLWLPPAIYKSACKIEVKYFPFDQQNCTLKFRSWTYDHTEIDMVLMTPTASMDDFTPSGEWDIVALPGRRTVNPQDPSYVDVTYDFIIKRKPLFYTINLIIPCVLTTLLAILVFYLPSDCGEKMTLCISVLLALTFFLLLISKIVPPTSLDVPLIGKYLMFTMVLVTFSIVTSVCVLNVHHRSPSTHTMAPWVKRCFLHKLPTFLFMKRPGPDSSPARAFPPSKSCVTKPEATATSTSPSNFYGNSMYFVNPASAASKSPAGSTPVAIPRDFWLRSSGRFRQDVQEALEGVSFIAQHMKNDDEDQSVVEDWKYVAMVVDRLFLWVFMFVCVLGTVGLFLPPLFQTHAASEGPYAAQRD
T3 sequence (P32297 whole entry): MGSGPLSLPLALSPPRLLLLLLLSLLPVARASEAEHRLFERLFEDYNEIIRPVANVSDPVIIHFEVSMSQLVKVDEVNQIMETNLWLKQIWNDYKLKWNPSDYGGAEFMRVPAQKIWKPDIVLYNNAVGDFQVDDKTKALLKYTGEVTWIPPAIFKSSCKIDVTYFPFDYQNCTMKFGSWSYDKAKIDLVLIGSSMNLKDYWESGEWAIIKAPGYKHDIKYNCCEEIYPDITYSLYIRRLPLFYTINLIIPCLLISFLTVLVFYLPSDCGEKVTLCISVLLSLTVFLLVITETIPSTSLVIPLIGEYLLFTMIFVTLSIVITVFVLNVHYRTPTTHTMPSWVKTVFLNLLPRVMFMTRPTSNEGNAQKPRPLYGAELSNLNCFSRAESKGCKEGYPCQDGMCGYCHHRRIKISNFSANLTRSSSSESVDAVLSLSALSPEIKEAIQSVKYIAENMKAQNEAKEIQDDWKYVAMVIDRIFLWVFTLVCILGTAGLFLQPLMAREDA
T2 sequence (P36544 whole entry): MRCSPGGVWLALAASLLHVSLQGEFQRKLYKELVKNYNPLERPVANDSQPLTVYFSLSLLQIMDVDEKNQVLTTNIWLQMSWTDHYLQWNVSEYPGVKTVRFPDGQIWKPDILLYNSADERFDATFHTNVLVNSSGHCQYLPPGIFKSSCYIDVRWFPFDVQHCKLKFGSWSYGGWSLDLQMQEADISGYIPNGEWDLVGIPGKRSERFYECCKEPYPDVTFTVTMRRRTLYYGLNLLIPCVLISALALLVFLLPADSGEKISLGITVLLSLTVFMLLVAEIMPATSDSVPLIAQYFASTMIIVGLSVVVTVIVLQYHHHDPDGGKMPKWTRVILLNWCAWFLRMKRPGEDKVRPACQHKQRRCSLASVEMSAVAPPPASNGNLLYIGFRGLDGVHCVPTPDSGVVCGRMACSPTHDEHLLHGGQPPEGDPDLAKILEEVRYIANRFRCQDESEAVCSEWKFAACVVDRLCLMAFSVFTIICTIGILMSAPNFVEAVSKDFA
T1 sequence (P17787 whole entry): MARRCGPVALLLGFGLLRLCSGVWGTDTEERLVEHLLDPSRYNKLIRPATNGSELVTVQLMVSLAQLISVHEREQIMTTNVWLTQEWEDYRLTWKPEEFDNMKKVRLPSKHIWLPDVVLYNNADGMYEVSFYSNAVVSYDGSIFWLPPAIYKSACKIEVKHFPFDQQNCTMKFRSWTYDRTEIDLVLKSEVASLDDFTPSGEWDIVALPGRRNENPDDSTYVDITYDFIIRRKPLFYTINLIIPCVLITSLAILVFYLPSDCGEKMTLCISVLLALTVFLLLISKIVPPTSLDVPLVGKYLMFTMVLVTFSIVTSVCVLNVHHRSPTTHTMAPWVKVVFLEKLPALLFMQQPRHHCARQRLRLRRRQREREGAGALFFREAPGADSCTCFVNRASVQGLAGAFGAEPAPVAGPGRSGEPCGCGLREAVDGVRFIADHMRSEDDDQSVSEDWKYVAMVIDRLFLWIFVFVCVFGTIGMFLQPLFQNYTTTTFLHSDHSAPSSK
T1 sequence (P43681 whole entry): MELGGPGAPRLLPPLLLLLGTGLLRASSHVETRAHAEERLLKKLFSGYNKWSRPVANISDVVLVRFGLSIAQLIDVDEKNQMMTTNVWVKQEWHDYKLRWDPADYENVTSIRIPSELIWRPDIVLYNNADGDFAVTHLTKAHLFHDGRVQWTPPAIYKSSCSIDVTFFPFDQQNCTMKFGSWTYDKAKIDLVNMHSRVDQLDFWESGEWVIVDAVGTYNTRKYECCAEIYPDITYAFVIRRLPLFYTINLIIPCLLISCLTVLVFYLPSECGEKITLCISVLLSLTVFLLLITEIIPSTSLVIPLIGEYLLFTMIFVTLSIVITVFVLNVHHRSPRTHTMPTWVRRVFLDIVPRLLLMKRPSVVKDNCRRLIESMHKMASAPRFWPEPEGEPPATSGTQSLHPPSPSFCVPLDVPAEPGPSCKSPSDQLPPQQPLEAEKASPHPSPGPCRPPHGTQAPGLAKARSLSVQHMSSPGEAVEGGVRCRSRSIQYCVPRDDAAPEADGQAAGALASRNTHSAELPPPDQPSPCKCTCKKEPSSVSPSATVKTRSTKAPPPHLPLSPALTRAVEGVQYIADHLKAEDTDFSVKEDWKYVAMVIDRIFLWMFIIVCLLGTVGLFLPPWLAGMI
Chain of Neuronal acetylcholine receptor subunit alpha-7 (Rattus norvegicus, UniProt Q05941) (Q05941 whole entry): as the sequence (Q05941 whole entry) above
Chain of Neuronal acetylcholine receptor; alpha4/beta4 (P30926 whole entry): as the sequence (P30926 whole entry) above
Chain of Neuronal acetylcholine receptor; alpha4/beta4 (P43681 whole entry): as the sequence (P43681 whole entry) above
Chain of Neuronal acetylcholine receptor; alpha3/beta2 (P17787 whole entry): as the sequence (P17787 whole entry) above
Chain of Neuronal acetylcholine receptor; alpha3/beta2 (P32297 whole entry): as the sequence (P32297 whole entry) above
Chain of Voltage-gated inwardly rectifying potassium channel KCNH2 (Q12809 whole entry): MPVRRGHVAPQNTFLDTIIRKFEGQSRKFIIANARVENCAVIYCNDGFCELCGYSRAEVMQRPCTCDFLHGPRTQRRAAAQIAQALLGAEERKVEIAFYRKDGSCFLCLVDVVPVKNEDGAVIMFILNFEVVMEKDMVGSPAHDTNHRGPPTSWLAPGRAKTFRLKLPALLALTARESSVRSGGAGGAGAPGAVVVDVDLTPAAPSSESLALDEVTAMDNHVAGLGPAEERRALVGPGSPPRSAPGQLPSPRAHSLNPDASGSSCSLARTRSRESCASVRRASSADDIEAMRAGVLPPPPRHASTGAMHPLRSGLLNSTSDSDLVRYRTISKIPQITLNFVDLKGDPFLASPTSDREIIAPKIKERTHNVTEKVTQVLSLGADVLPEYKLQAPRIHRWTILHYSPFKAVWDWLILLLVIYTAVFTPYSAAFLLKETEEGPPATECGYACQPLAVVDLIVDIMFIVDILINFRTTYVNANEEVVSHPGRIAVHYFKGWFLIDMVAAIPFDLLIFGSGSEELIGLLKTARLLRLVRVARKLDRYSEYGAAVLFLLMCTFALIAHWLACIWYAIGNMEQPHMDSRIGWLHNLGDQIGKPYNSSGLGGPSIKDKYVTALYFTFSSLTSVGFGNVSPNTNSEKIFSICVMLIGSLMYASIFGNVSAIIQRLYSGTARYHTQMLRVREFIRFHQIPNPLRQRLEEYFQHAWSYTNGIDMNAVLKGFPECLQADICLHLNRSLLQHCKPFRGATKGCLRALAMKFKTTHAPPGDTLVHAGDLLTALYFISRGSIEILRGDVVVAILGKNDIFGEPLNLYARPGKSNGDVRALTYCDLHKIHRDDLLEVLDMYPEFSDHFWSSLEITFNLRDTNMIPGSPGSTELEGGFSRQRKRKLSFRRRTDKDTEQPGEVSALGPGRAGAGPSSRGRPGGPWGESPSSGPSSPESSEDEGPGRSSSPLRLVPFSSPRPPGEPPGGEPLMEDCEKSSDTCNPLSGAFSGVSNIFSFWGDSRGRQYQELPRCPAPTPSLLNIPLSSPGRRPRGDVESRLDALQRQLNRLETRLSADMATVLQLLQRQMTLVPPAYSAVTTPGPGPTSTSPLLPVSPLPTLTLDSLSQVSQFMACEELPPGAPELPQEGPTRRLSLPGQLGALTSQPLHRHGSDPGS

SMILES	Ki [1] [µM]	also measured
O=C1c2ccccc2-c2ccc(O[C@@H]3CN4CCC3CC4)cc21	0.012	–
CCN(CC)CCOc1ccc2c(c1)C(=O)c1cc(OCCN(CC)CC)ccc1-2 [TILORONE]	0.056	EC50 [2]: > 10 µM; EC50 [3]: 2.5 µM; EC50 [4]: > 10 µM; EC50 [5]: > 10 µM; EC50 [6]: > 10 µM; Ki [7]: 0.42 µM; Emax [8]: 67%
CCNCCOc1ccc2c(c1)C(=O)c1cc(OCCNCC)ccc1-2	0.95	–
O=c1c2ccccc2oc2ccc(O[C@@H]3CN4CCC3CC4)cc12	0.0088	–
O=S1(=O)c2ccccc2-c2ccc(N3CCN4CCC3CC4)cc21	2.3e-05	Ki [9]: 0.66 µM; EC50 [3]: > 100 µM; concentration at 0.5 h [10]: 8.4 ng/mL; EC50 [11]: > 100 µM; EC50 [12]: > 100 µM; Ki [13]: 0.47 µM; Emax [8]: < 5%; Kp at 0.5 h [14]: 12
CN(C)CCOc1ccc2c(c1)C(=O)c1cc(OCCN(C)C)ccc1-2	0.05	–
O=C1c2cc(O[C@@H]3CN4CCC3CC4)ccc2-c2ccc(O[C@@H]3CN4CCC3CC4)cc21	0.0016	–
CN1CCC[C@H]1COc1ccc2c(c1)C(=O)c1cc(OC[C@@H]3CCCN3C)ccc1-2	0.012	–
CCN(CC)CCCOc1ccc2c(c1)C(=O)c1cc(OCCCN(CC)CC)ccc1-2	0.83	–
O=C1c2cc(N3CC4CNCC4C3)ccc2-c2ccc(N3CC4CNCC4C3)cc21 (configuration not stated)	0.00031	–
CN1CC2CN(c3ccc4c(c3)C(=O)c3ccccc3-4)CC2C1 (configuration not stated)	0.063	–
O=c1c2ccccc2oc2ccc(O[C@H]3CN4CCC3CC4)cc12	0.0087	–
CCN(CC)CCOc1cccc(C(=O)c2cccc(OCCN(CC)CC)c2)c1	68	–
CN1C[C@H]2CN(c3ccc4c(c3)S(=O)(=O)c3ccccc3-4)C[C@H]21	0.023	–
CCN(CC)CCOc1ccc2c(c1)C(=O)c1cc(OCCOC)ccc1-2	2	–
CCN(CC)CCOc1ccc(-c2ccc(OCCN(CC)CC)cc2)cc1	> 1000	–
c1ccc2c(c1)Cc1cc(O[C@H]3CN4CCC3CC4)ccc1-2	0.11	–
CN1CCN(c2ccc3c(c2)C(=O)c2cc(N4CCN(C)CC4)ccc2-3)CC1	0.14	–
CN1CCC(Oc2ccc3c(c2)C(=O)c2cc(OC4CCN(C)CC4)ccc2-3)CC1	0.037	–
O=C1c2cc(OCCN3CCCC3)ccc2-c2ccc(OCCN3CCCC3)cc21	0.053	–
CCN(CC)CCCCOc1ccc2c(c1)C(=O)c1cc(OCCCCN(CC)CC)ccc1-2	2.3	–
CCN(CC)CCOc1ccc2ccc(OCCN(CC)CC)cc2c1	> 1000	–
NCCOc1ccc2c(c1)C(=O)c1cc(OCCN)ccc1-2	15	–
CCN(CC)CCOc1ccc2c(c1)Cc1cc(OCCN(CC)CC)ccc1-2	0.77	–
CN1CC2CN(c3ccc4oc5ccccc5c(=O)c4c3)CC2C1 (configuration not stated)	0.004	Ki [9]: 0.1 µM; EC50 [3]: 2.2 µM; concentration at 0.5 h [10]: 12.4 ng/mL; EC50 [11]: > 100 µM; EC50 [12]: > 100 µM; Emax [8]: 61%; Kp at 0.5 h [14]: 48
CCN(CC)CCOc1ccc2c(c1)sc1cc(OCCN(CC)CC)ccc12	1.6	–
CN1CC2CN(c3ccc4c(c3)C(=O)c3cc(N5CC6CN(C)CC6C5)ccc3-4)CC2C1 (configuration not stated)	0.0012	–

SMILES	Ki [1] [µM]	also measured
CC[N+](C)(CC)CCOc1ccc2c(c1)C(=O)c1cc(OCC[N+](C)(CC)CC)ccc1-2	0.015	–
CN1CC[C@@H]1COc1ccc2c(c1)C(=O)c1cc(OC[C@H]3CCN3C)ccc1-2	0.0043	–
CN1CCC[C@@H]1COc1ccc2c(c1)C(=O)c1cc(OC[C@H]3CCCN3C)ccc1-2	0.0076	–
O=C1c2cc(O[C@@H]3CCNC3)ccc2-c2ccc(O[C@@H]3CCNC3)cc21	0.071	–
CN1C[C@H]2CN(c3ccc4c(c3)C(=O)c3ccccc3-4)C[C@H]21	0.0059	Ratio Ki [15]: 10
O=C1c2ccccc2-c2ccc(N3CCN4CCC3CC4)cc21	0.00028	–
CCN(CC)CC#Cc1ccc2c(c1)C(=O)c1cc(C#CCN(CC)CC)ccc1-2	0.087	–
c1ccc2c(c1)Cc1cc(O[C@@H]3CN4CCC3CC4)ccc1-2	0.34	–
O=C1c2cc(O[C@H]3CN4CCC3CC4)ccc2-c2ccc(O[C@H]3CN4CCC3CC4)cc21	0.00058	–
CN1CC2CN(c3ccc4c(c3)C(=O)c3cc(N)ccc3-4)CC2C1 (configuration not stated)	0.00065	–
CC(C)N(CCOc1ccc2c(c1)C(=O)c1cc(OCCN(C(C)C)C(C)C)ccc1-2)C(C)C	1.3	–
CCN(CC)CCOc1ccc2c(c1)C(O)c1cc(OCCN(CC)CC)ccc1-2	0.27	–
O=S1(=O)c2ccccc2-c2ccc(O[C@@H]3CN4CCC3CC4)cc21	0.028	–
O=C1c2cc(N3C[C@@H]4CN[C@@H]4C3)ccc2-c2ccc(N3C[C@@H]4CN[C@@H]4C3)cc21	0.018	–
CCN(CC)CCOc1ccc2c3ccc(OCCN(CC)CC)cc3[s+]([O-])c2c1	0.69	–
CCN(CC)CCOc1ccc2c(c1)S(=O)(=O)c1cc(OCCN(CC)CC)ccc1-2	0.23	–
CCN(CC)CCOc1ccc2oc3ccc(OCCN(CC)CC)cc3c(=O)c2c1	0.44	–
CN1[C@@H]2CC[C@H]1C[C@H](Oc1ccc3c(c1)C(=O)c1cc(O[C@@H]4C[C@H]5CC[C@@H](C4)N5C)ccc1-3)C2	0.09	–
O=C1c2ccccc2-c2ccc(O[C@H]3CN4CCC3CC4)cc21	0.0032	–
O=S1(=O)c2ccccc2-c2ccc(O[C@H]3CN4CCC3CC4)cc21	0.0039	–
CN1C[C@H]2CN(c3ccc4c(c3)C(=O)c3cc(N5C[C@@H]6CN(C)[C@@H]6C5)ccc3-4)C[C@H]21	9.2e-05	–
CCN(CC)CCOc1ccc2c(c1)C(=O)c1ccccc1-2	1.8	–
CCN(CC)CCCc1ccc2c(c1)C(=O)c1cc(CCCN(CC)CC)ccc1-2	2.9	–
CN1CCCN(c2ccc3c(c2)C(=O)c2cc(N4CCCN(C)CC4)ccc2-3)CC1	0.0065	Ratio Ki [15]: 10
O=C1c2cc(OCCN3CCCCC3)ccc2-c2ccc(OCCN3CCCCC3)cc21	4.2	–
CN1CC[C@@H](Oc2ccc3c(c2)C(=O)c2cc(O[C@@H]4CCN(C)C4)ccc2-3)C1	0.012	–
